These results are taken from patent publication US11780845B2 (Relay Therapeutics, Inc., priority 2019, dated 2023).

In one test the target is FGFR2 (Homo sapiens (Human), UniProt P21802). Description: Biochemical FGFR2 Caliper assay.
For a further test, the system named is SNU-16. Description: Cell SNU-16 assay. In kind it is cell-based.
Where [1] appears, read: Homo sapiens, SNU-16, SNU-16 cells.

pIC50: −log10 of the molar value.

Chain of FGFR2 (P21802 22-821): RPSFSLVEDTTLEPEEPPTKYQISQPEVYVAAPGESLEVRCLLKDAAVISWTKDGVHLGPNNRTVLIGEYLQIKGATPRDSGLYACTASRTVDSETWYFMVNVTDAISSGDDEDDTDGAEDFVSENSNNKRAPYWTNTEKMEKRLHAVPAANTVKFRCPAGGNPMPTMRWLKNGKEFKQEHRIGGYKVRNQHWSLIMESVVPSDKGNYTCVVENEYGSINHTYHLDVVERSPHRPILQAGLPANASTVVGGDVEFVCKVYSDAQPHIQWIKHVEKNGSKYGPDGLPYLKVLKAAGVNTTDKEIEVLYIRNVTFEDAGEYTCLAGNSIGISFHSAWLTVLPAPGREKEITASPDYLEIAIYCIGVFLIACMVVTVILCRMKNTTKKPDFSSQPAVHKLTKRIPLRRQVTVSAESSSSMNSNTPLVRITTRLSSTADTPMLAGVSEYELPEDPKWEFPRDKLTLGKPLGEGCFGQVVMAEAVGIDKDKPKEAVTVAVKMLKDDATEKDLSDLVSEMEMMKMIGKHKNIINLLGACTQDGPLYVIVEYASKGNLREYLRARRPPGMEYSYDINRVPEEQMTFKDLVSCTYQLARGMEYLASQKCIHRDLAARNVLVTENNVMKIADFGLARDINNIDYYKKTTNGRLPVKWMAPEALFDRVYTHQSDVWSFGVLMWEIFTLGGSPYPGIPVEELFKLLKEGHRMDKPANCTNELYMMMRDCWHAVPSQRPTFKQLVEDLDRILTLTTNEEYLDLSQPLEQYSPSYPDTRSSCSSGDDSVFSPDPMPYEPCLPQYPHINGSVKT

As to `C=C(C)C(=O)Nc1ccc(-c2c(C3=CC[C@@H](C(=O)N4CCCC[C@H]4C)CC3)c3c(N)ncnc3n2C)cc1` [Example 992], the pIC50 at FGFR2 was 4.00 to 6.00; in the test on SNU-16 (setting [1]), 6.60 to 7.00.
In the same order, the values of `C=C(C)C(=O)Nc1ccc(-c2c(C3=CC[C@@H](S(=O)(=O)N4CCCC4)CC3)c3c(N)ncnc3n2C)cc1` [Example 993] are greater than 7.00 and no less than 7.00.
The corresponding values for `C=C(C)C(=O)Nc1ccc(-c2c(C3=CC[C@H](C(=O)N4CCCC[C@H]4C)CC3)c3c(N)ncnc3n2C)cc1` [Example 994] are 4.00 to 6.00 and 6.60 to 7.00.
For `C=C(C)C(=O)Nc1ccc(-c2c(C3=CC[C@H](S(=O)(=O)N4CCCC4)CC3)c3c(N)ncnc3n2C)cc1` [Example 995], the figures for the pIC50 against FGFR2 and with SNU-16 (setting [1]) were 4.00 to 6.00 and 6.00 to 6.60, respectively.
Consider `C=C(C)C(=O)Nc1ccc(-c2c(C3=CC[C@@H](C(=O)N4CC5CC4C5)CC3)c3c(N)ncnc3n2C)cc1` [Example 996], for which the figures for the pIC50 at FGFR2 and in the test on SNU-16 (setting [1]) were 6.00 to 6.60 and 6.60 to 7.00, respectively.
In the case of `C=C(C)C(=O)Nc1ccc(-c2c(C3=CC[C@H](C(=O)N4CC5CC4C5)CC3)c3c(N)ncnc3n2C)cc1` [Example 997], the pIC50 against FGFR2 was 4.00 to 6.00; in the test with SNU-16 (setting [1]) it was 6.00 to 6.60.
For `C=C(C)C(=O)Nc1ccc(-c2c(C3=CC[C@@H](C(=O)N4CCCC45CCC5)CC3)c3c(N)ncnc3n2C)cc1` [Example 998], the pIC50 is greater than 7.00 on FGFR2 and no less than 7.00 with SNU-16 (setting [1]).
The corresponding values for `C=C(C)C(=O)Nc1ccc(-c2c(C3=CC[C@H](C(=O)N4CCCC45CCC5)CC3)c3c(N)ncnc3n2C)cc1` [Example 999] are greater than 7.00 and no less than 7.00.
Take `C#Cc1ncc(-c2c(-c3ccc(Oc4nccc(C)n4)cc3)c3c(N)ncnc3n2C)cn1` [Example 1000]: the figures for the pIC50 on FGFR2 and in the test on SNU-16 (SNU-16 cells) were 4.00 to 6.00 and 6.00 to 6.60, respectively.
For `C=C(C)C(=O)Nc1ccc(-c2c(C3=CC[C@H](C(=O)N4CCCC4)CC3)c3c(N)ncnc3n2C)c(F)c1` [Example 1001], the pIC50 on FGFR2 was greater than 7.00; with SNU-16 (setting [1]) it was no less than 7.00.
As for `C=C(C)C(=O)Nc1ccc(-c2c(C3=CC[C@@H](C(=O)N4CCCC4)CC3)c3c(N)ncnc3n2C)c(F)c1` [Example 1002], the pIC50 at FGFR2 was greater than 7.00; in the test on SNU-16 (setting [1]), no less than 7.00.
In the case of `C=C(C)C(=O)Nc1ccc(-c2c(C3=CC[C@@H](C(=O)N4CCC[C@@H]4C)CC3)c3c(N)ncnc3n2C)cc1` [Example 1003], the figures for the pIC50 on FGFR2 and in the test on SNU-16 (setting [1]) were 6.00 to 6.60 and 6.60 to 7.00, respectively.
In the case of `C=CC(=O)N1CCN(c2cccc(-c3c(-c4ccc(Oc5cccc(C)n5)cc4)c4c(N)ncnc4n3C)c2)CC1` [Example 1004], the negative-log IC50 (pIC50) was greater than 7.00 against FGFR2 and no less than 7.00 in the test with SNU-16 (setting [1]).
In the same order, the values of `C=CC(=O)NCc1cccc(-c2c(-c3ccc(Oc4cccc(C)n4)cc3)c3c(N)ncnc3n2C)c1` [Example 1005] are 6.00 to 6.60 and 6.60 to 7.00.
For `C=C(C)C(=O)Nc1ccc(-c2c(C3=CC[C@H](C(=O)N4CCC[C@H]4C)CC3)c3c(N)ncnc3n2C)cc1` [Example 1006], the pIC50 on FGFR2 and in the test with SNU-16 (setting [1]) was 6.00 to 6.60 throughout.
With `C#CCCCCn1c(-c2ccc(NC(=O)C(=C)C)cc2)c(-c2ccc(Oc3nccc(C)n3)c(F)c2)c2c(N)ncnc21` [Example 1007], the pIC50 on FGFR2 is greater than 7.00; in the test with SNU-16 (setting [1]), no less than 7.00.
In the same order, the values of `C=C(C)C(=O)Nc1ccc(-c2c(C3=CC[C@@H](C(=O)N4CCC[C@H]4C)CC3)c3c(N)ncnc3n2C)cc1` [Example 1008] are 6.60 to 7.00 and 6.60 to 7.00.
Turning to `C=C(C)C(=O)Nc1ccc(-c2c(C3=CC[C@@](C)(C(=O)N4CCCC4)CC3)c3c(N)ncnc3n2C)cc1` [Example 1009], the results for the pIC50 on FGFR2 and with SNU-16 (SNU-16 cells) were 4.00 to 6.00 and 6.00 to 6.60, respectively.
As to `C=C(C)C(=O)Nc1nn(C)c(-c2c(-c3ccc(Oc4nccc(C)n4)cc3)c3c(N)ncnc3n2C)c1C` [Example 1010], the pIC50 is 4.00 to 6.00 on FGFR2 and 6.00 to 6.60 with SNU-16 (setting [1]).
In the same order, the values of `C=C(C)C(=O)Nc1ccc(-c2c(C3=CC[C@@H](C(=O)N4CCCC45COC5)CC3)c3c(N)ncnc3n2C)c(F)c1` [Example 1011] are greater than 7.00 and no less than 7.00.
The corresponding values for `C=C(C)C(=O)Nc1ccc(-c2c(C3=CC[C@H](C(=O)N4CCCC45COC5)CC3)c3c(N)ncnc3n2C)c(F)c1` [Example 1012] are 6.00 to 6.60 and 6.60 to 7.00.
With `Cc1ccnc(Oc2ccc(-c3c(-c4ccc(NC(=O)/C=C/CN(C)C)cc4)n(C)c4ncnc(N)c34)cc2F)n1` [Example 1013], the results for the pIC50 on FGFR2 and with SNU-16 (setting [1]) were greater than 7.00 and no less than 7.00, respectively.
Consider `C=C(C)C(=O)Nc1ccc(-c2c(C3=CC[C@H](C(=O)N4CCCC4)OC3)c3c(N)ncnc3n2C)cc1` [Example 1014], for which the figures for the pIC50 against FGFR2 and with SNU-16 (setting [1]) were greater than 7.00 and no less than 7.00, respectively.
`C=C(C)C(=O)Nc1ccc(-c2c(C3=CC[C@@H](C(=O)N4CCCC4)OC3)c3c(N)ncnc3n2C)cc1` [Example 1015]: the pIC50 at FGFR2 and with SNU-16 (setting [1]) was 4.00 to 6.00 in each case.
Turning to `C=C(C)C(=O)Nc1ccc(-c2c(C3=CC[C@@H](C(=O)N4CCCC4)CC3)c3c(N)ncnc3n2C)c(Cl)c1` [Example 1016], the pIC50 against FGFR2 and with SNU-16 (setting [1]) was 4.00 to 6.00 in each case.
As to `C=C(C)C(=O)Nc1ccc(-c2c(C3=CC[C@H](C(=O)N4CCCC4)CC3)c3c(N)ncnc3n2C)c(Cl)c1` [Example 1017], the pIC50 against FGFR2 was greater than 7.00; in the test with SNU-16 (setting [1]), no less than 7.00.
In the same order, the values of `C=CC(=O)Nc1cccc(-c2c(C3=CC[C@H](C(=O)N4CCCC4)CC3)c3c(N)ncnc3n2C)c1` [Example 1018] are greater than 7.00 and no less than 7.00.
Regarding `C=CC(=O)Nc1cccc(-c2c(C3=CC[C@@H](C(=O)N4CCCC4)CC3)c3c(N)ncnc3n2C)c1` [Example 1019], the pIC50 against FGFR2 was greater than 7.00; in the test on SNU-16 (setting [1]), no less than 7.00.
The corresponding values for `C=CC(=O)Nc1ccc(-c2c(-c3ccc(C(=O)NCC4(F)COC4)cc3)c3c(N)ncnc3n2C)cc1` [Example 1020] are 6.60 to 7.00 and no less than 7.00.
In the same order, the values of `C=C(C)C(=O)Nc1cccc(-c2c(-c3ccc(C(=O)NCC4(F)COC4)cc3)c3c(N)ncnc3n2C)c1` [Example 1021] are greater than 7.00 and no less than 7.00.
`C=C(C)C(=O)Nc1ccc(-c2c(C3=CC[C@@H](C(=O)NCC4(F)COC4)CC3)c3c(N)ncnc3n2C)cc1` [Example 1022]: the results for the pIC50 against FGFR2 and in the test with SNU-16 (setting [1]) were 6.00 to 6.60 and 4.00 to 6.00, respectively.
The corresponding values for `C=C(C)C(=O)Nc1ccc(-c2c(C3=CC[C@H](C(=O)NCC4(F)COC4)CC3)c3c(N)ncnc3n2C)cc1` [Example 1023] are 4.00 to 6.00 and 4.00 to 6.00.
Consider `C=C(C)C(=O)Nc1ccc(-c2c(C3=CC[C@](C)(C(=O)N4CCCC4)CC3)c3c(N)ncnc3n2C)cc1` [Example 1024], for which the pIC50 against FGFR2 and with SNU-16 (SNU-16 cells) was 6.00 to 6.60 throughout.
Take `C=C(C)C(=O)Nc1ccc(-c2c(C3=CC[C@@](C)(C(=O)N4CCCC4)CC3)c3c(N)ncnc3n2C)cc1` [Example 1025]: the pIC50 on FGFR2 and in the test on SNU-16 (SNU-16 cells) was 4.00 to 6.00 each time.
Take `C=C(C)C(=O)Nc1ccc(-c2c(C3=CC[C@](C)(C(=O)N4CCCC4)CC3)c3c(N)ncnc3n2C)cc1` [Example 1026]: the pIC50 on FGFR2 and with SNU-16 (SNU-16 cells) was 4.00 to 6.00 in each case.
Turning to `C=CC(=O)Nc1cccc(-c2c(-c3ccc4c(c3)CCCN4C)c3c(N)ncnc3n2C)c1` [Example 1027], the pIC50 at FGFR2 and in the test on SNU-16 (setting [1]) was 4.00 to 6.00 in each case.
Regarding `C=CC(=O)Nc1cccc(-c2c(-c3ccc(C(=O)NCC4(F)COC4)cc3)c3c(N)ncnc3n2C)c1` [Example 1030], the pIC50 is greater than 7.00 on FGFR2 and no less than 7.00 with SNU-16 (setting [1]).
As to `C=C(C)C(=O)Nc1ccc(-c2c(C3=CC[C@@H](C(=O)N4CC[C@@H]5C[C@@H]54)CC3)c3c(N)ncnc3n2C)cc1` [Example 1037], the results for the pIC50 at FGFR2 and in the test on SNU-16 (setting [1]) were greater than 7.00 and 6.00 to 6.60, respectively.
In the same order, the values of `C#Cc1ccc(-c2c(-c3ccc(C(=O)N4CCCC4)cc3)c3c(N)ncnc3n2C)cn1` [Example 1040] are 4.00 to 6.00 and 6.00 to 6.60.
In the same order, the values of `Cc1ccnc(Oc2ccc(-c3c(-c4ccc(NC(=O)/C=C/CN(C)C)cc4)n(C)c4ncnc(N)c34)cc2)n1` [Example 1041] are 6.60 to 7.00 and no less than 7.00.
For `C=C(CN(C)C)C(=O)Nc1ccc(-c2c(-c3ccc(C(=O)NCC4(F)COC4)cc3)c3c(N)ncnc3n2C)cc1` [Example 1044], the results for the pIC50 on FGFR2 and in the test with SNU-16 (setting [1]) were greater than 7.00 and no less than 7.00, respectively.
In the same order, the values of `C=CC(=O)N1CCCc2c1nc(-c1c(-c3ccc(Oc4nccc(C)n4)cc3)c3c(N)ncnc3n1C)n2C` [Example 1045] are 4.00 to 6.00 and 4.00 to 6.00.
As for `C=C(C)C(=O)Nc1ccc(-c2c(-c3ccc(C(=O)NCC4CCC4)c(OC)c3)c3c(N)ncnc3n2C)cc1` [Example 1046], the pIC50 on FGFR2 and in the test on SNU-16 (setting [1]) was 4.00 to 6.00 throughout.
As to `C=C(C)C(=O)Nc1ccc(-c2c(C3=CCC(S(=O)(=O)C4CCCC4)CC3)c3c(N)ncnc3n2C)cc1` (stereo not shown) [Example 1047], the pIC50 against FGFR2 and with SNU-16 (setting [1]) was 6.00 to 6.60 each time.
As for `C=Cc1nc2ccc(-c3c(-c4ccc(Oc5nccc(C)n5)cc4)c4c(N)ncnc4n3C)cc2[nH]1` [Example 1048], the pIC50 at FGFR2 was 6.00 to 6.60; with SNU-16 (setting [1]), 6.60 to 7.00.
The corresponding values for `C=CC(=O)Nc1ccc(-c2c(-c3ccc(Oc4cccc(C)n4)cc3)c3c(N)ncnc3n2C)cc1` [Example 1050] are 6.00 to 6.60 and 6.00 to 6.60.
Consider `C#Cc1ncc(-c2ccc(-c3c(-c4ccc(Oc5nccc(C)n5)cc4)c4c(N)ncnc4n3C)cc2)o1` [Example 1052], for which the pIC50 against FGFR2 and in the test with SNU-16 (setting [1]) was 4.00 to 6.00 throughout.
Take `C=CC(=O)Nc1ccc(-c2c(-c3ccc(Oc4cccc(C)n4)c(F)c3)c3c(N)ncnc3n2C)cc1` [Example 1053]: the pIC50 at FGFR2 is 6.60 to 7.00; with SNU-16 (setting [1]) it was 6.00 to 6.60.
In the same order, the values of `C=CC(=O)Nc1ccc(-c2c(-c3ccc(Oc4nccc(C)n4)cc3)c3c(N)ncnc3n2C)c(Cl)c1` [Example 1054] are greater than 7.00 and no less than 7.00.
For `C=C(C)C(=O)Nc1ccc(-c2c(C3=CC[C@@H](C(=O)N4CCC[C@@H]4C4CC4)CC3)c3c(N)ncnc3n2C)cc1` [Example 1055], the pIC50 was greater than 7.00 at FGFR2 and no less than 7.00 in the test on SNU-16 (setting [1]).
